{"source": "PubChem BioAssay AID180", "about": "(DTP/NCI, 2004)", "test_system": "BDF1 mice, Adenocarcinoma 755 s.c., tumor weight T/C", "assay": "NCI In Vivo Anticancer Drug Screen. Data for tumor model Adenocarcinoma 755 (subcutaneous) in B6D2F1 (BDF1) mice", "details": "endpoint: mean tumor weight, higher = larger tumour", "procedure,_shortened": "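Readout: T/C, i.e. treated-group measurement over vehicle-control measurement. Endpoint is survival or tumor size in tumor-bearing mice given compound.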", "key": {"[1]": {"details": "dose: 6.25 mg/kg/injection, schedule: Q01DX011 (ip), vehicle: methylcellulose (MC)"}, "[2]": {"details": "dose: 12.5 mg/kg/injection, schedule: Q01DX011 (ip), vehicle: methylcellulose (MC)"}, "[3]": {"details": "dose: 25.0 mg/kg/injection, schedule: Q01DX011 (ip), vehicle: methylcellulose (MC)"}}, "note": "“And” between values parts separate entries of the source, which are not always exact repeats. Equal entries are not always repeated."}
{"smiles": "CN(C)S(=O)(=O)c1ncnc2nc[nH]c12", "values": [{"measurement": "T/C", "setting": "dose: 32.0 mg/kg/injection, schedule: Q01DX011 (ip), vehicle: other", "result": "26 % of control"}, {"measurement": "T/C", "setting": "dose: 128.0 mg/kg/injection, schedule: Q01DX011 (ip), vehicle: other", "result": "7 % of control"}, {"measurement": "T/C", "setting": "dose: 256.0 mg/kg/injection, schedule: Q01DX011 (ip), vehicle: other", "result": "6 % of control"}]}
{"smiles": "Clc1ncnc2c1ncn2C1CCCCO1", "note": "(configuration not stated)", "values": [{"measurement": "T/C", "setting": "dose: 31.0 mg/kg/injection, schedule: Q01DX011 (ip), vehicle: other", "result": "72 % of control"}, {"measurement": "T/C", "setting": "dose: 62.0 mg/kg/injection, schedule: Q01DX011 (ip), vehicle: other", "result": "7 % of control"}]}
{"smiles": "N#CCSc1ncnc2nc[nH]c12", "values": [{"measurement": "T/C", "setting": "dose: 1.0 mg/kg/injection, schedule: Q01DX011 (im), vehicle: carboxymethylcellulose (CMC)", "result": "63 % of control"}, {"measurement": "T/C", "setting": "dose: 1.0 mg/kg/injection, schedule: Q01DX011 (ip), vehicle: carboxymethylcellulose (CMC)", "result": "54 % of control"}, {"measurement": "T/C", "setting": "dose: 1.0 mg/kg/injection, schedule: Q01DX011 (iv), vehicle: carboxymethylcellulose (CMC)", "result": "79 % of control"}, {"measurement": "T/C", "setting": "dose: 1.0 mg/kg/injection, schedule: Q01DX011 (sc), vehicle: carboxymethylcellulose (CMC)", "result": "53 % of control"}, {"measurement": "T/C", "setting": "dose: 2.0 mg/kg/injection, schedule: Q01DX011 (im), vehicle: carboxymethylcellulose (CMC)", "result": "9 % of control"}, {"measurement": "T/C", "setting": "dose: 2.0 mg/kg/injection, schedule: Q01DX011 (ip), vehicle: carboxymethylcellulose (CMC)", "result": "14 % of control"}, {"measurement": "T/C", "setting": "dose: 2.0 mg/kg/injection, schedule: Q01DX011 (iv), vehicle: carboxymethylcellulose (CMC)", "result": "28 % of control"}, {"measurement": "T/C", "setting": "dose: 2.0 mg/kg/injection, schedule: Q01DX011 (sc), vehicle: carboxymethylcellulose (CMC)", "result": "10 % of control"}, {"measurement": "T/C", "setting": "dose: 4.0 mg/kg/injection, schedule: Q01DX011 (im), vehicle: carboxymethylcellulose (CMC)", "result": "1 % of control"}, {"measurement": "T/C", "setting": "dose: 4.0 mg/kg/injection, schedule: Q01DX011 (ip), vehicle: carboxymethylcellulose (CMC)", "result": "6 % of control"}, {"measurement": "T/C", "setting": "dose: 8.0 mg/kg/injection, schedule: Q01DX011 (ip), vehicle: carboxymethylcellulose (CMC)", "result": "7 % of control"}, {"measurement": "T/C", "setting": "dose: 8.0 mg/kg/injection, schedule: Q01DX011 (iv), vehicle: carboxymethylcellulose (CMC)", "result": "1 % of control"}, {"measurement": "T/C", "setting": "dose: 16.0 mg/kg/injection, schedule: Q01DX011 (ip), vehicle: carboxymethylcellulose (CMC)", "result": "3 % of control"}, {"measurement": "T/C", "setting": "dose: 50.0 mg/kg/injection, schedule: Q03DX004 (ip), vehicle: carboxymethylcellulose (CMC)", "result": "2 % of control"}, {"measurement": "T/C", "setting": "dose: 64.0 mg/kg/injection, schedule: Q01DX011 (ip), vehicle: carboxymethylcellulose (CMC)", "result": "2 % of control"}, {"measurement": "T/C", "setting": "dose: 100.0 mg/kg/injection, schedule: Q01DX001 (ip), vehicle: carboxymethylcellulose (CMC)", "result": "20 % of control"}, {"measurement": "T/C", "setting": "dose: 100.0 mg/kg/injection, schedule: Q03DX004 (ip), vehicle: carboxymethylcellulose (CMC)", "result": "1 % of control"}, {"measurement": "T/C", "setting": "dose: 100.0 mg/kg/injection, schedule: Q07DX002 (ip), vehicle: carboxymethylcellulose (CMC)", "result": "5 % of control"}, {"measurement": "T/C", "setting": "dose: 200.0 mg/kg/injection, schedule: Q01DX001 (ip), vehicle: carboxymethylcellulose (CMC)", "result": "20 % of control"}, {"measurement": "T/C", "setting": "dose: 200.0 mg/kg/injection, schedule: Q07DX002 (ip), vehicle: carboxymethylcellulose (CMC)", "result": "3 % of control"}]}
{"smiles": "N#[N+]c1nc2ncnc(N)c2[nH]1", "values": [{"measurement": "T/C", "setting": "dose: 12.5 mg/kg/injection, schedule: Q01DX011 (ip), vehicle: saline", "result": "101 % of control"}, {"measurement": "T/C", "setting": "dose: 25.0 mg/kg/injection, schedule: Q01DX011 (ip), vehicle: saline", "result": "70 % of control"}]}
{"smiles": "CCCCCCCCSc1ncnc2c1ncn2CCCC", "values": [{"measurement": "T/C", "setting": "dose: 93.0 mg/kg/injection, schedule: Q01DX011 (ip), vehicle: saline", "result": "92 % of control"}, {"measurement": "T/C", "setting": "dose: 250.0 mg/kg/injection, schedule: Q01DX011 (ip), vehicle: saline", "result": "97 % of control"}, {"measurement": "T/C", "setting": "dose: 375.0 mg/kg/injection, schedule: Q01DX011 (ip), vehicle: saline", "result": "77 % of control"}]}
{"smiles": "CCCCn1cnc2c(SCc3ccccc3F)nc(N)nc21", "values": [{"measurement": "T/C", "setting": "[1]", "result": "81 % of control"}, {"measurement": "T/C", "setting": "[2]", "result": "41 % of control"}, {"measurement": "T/C", "setting": "[3]", "result": "18 % of control"}, {"measurement": "T/C", "setting": "dose: 50.0 mg/kg/injection, schedule: Q01DX011 (ip), vehicle: methylcellulose (MC)", "result": "3 % of control"}, {"measurement": "T/C", "setting": "dose: 100.0 mg/kg/injection, schedule: Q01DX011 (ip), vehicle: methylcellulose (MC)", "result": "5 % of control"}]}
{"smiles": "CC(=O)OCC(=O)[C@@]1(O)CC[C@H]2[C@@H]3CCC4=CC(=O)CC[C@]4(C)[C@H]3[C@@H](O)C[C@@]21C", "values": [{"measurement": "T/C", "setting": "dose: 1.13 mg/kg/injection, schedule: Q01DX011 (sc), vehicle: steriod suspending solution", "result": "225 % of control"}, {"measurement": "T/C", "setting": "dose: 2.25 mg/kg/injection, schedule: Q01DX011 (sc), vehicle: steriod suspending solution", "result": "109 % of control"}, {"measurement": "T/C", "setting": "dose: 2.5 mg/kg/injection, schedule: Q01DX011 (ip), vehicle: steriod suspending solution", "result": "60 % of control"}, {"measurement": "T/C", "setting": "dose: 3.75 mg/kg/injection, schedule: Q01DX011 (sc), vehicle: steriod suspending solution", "result": "117 % of control"}, {"measurement": "T/C", "setting": "dose: 4.5 mg/kg/injection, schedule: Q01DX011 (sc), vehicle: steriod suspending solution", "result": "153 % of control"}, {"measurement": "T/C", "setting": "dose: 5.0 mg/kg/injection, schedule: Q01DX011 (ip), vehicle: steriod suspending solution", "result": "73 % of control"}, {"measurement": "T/C", "setting": "dose: 5.0 mg/kg/injection, schedule: Q01DX011 (sc), vehicle: steriod suspending solution", "result": "56 % of control"}, {"measurement": "T/C", "setting": "dose: 7.5 mg/kg/injection, schedule: Q01DX011 (sc), vehicle: steriod suspending solution", "result": "85 % of control"}, {"measurement": "T/C", "setting": "dose: 9.0 mg/kg/injection, schedule: Q01DX011 (sc), vehicle: steriod suspending solution", "result": "54 % of control"}, {"measurement": "T/C", "setting": "dose: 10.0 mg/kg/injection, schedule: Q01DX006 (iv), vehicle: steriod suspending solution", "result": "88 % of control"}, {"measurement": "T/C", "setting": "dose: 10.0 mg/kg/injection, schedule: Q01DX011 (ip), vehicle: steriod suspending solution", "result": "50 % of control"}, {"measurement": "T/C", "setting": "dose: 10.0 mg/kg/injection, schedule: Q01DX011 (sc), vehicle: steriod suspending solution", "result": "33 % of control"}, {"measurement": "T/C", "setting": "dose: 20.0 mg/kg/injection, schedule: Q01DX006 (iv), vehicle: steriod suspending solution", "result": "32 % of control"}, {"measurement": "T/C", "setting": "dose: 20.0 mg/kg/injection, schedule: Q01DX011 (ip), vehicle: steriod suspending solution", "result": "17 % of control"}, {"measurement": "T/C", "setting": "dose: 20.0 mg/kg/injection, schedule: Q01DX011 (sc), vehicle: steriod suspending solution", "result": "63 % of control"}, {"measurement": "T/C", "setting": "dose: 30.0 mg/kg/injection, schedule: Q01DX011 (sc), vehicle: steriod suspending solution", "result": "19 % of control and 28 % of control"}, {"measurement": "T/C", "setting": "dose: 31.25 mg/kg/injection, schedule: Q01DX011 (sc), vehicle: steriod suspending solution", "result": "19 % of control"}, {"measurement": "T/C", "setting": "dose: 40.0 mg/kg/injection, schedule: Q01DX006 (iv), vehicle: steriod suspending solution", "result": "66 % of control"}, {"measurement": "T/C", "setting": "dose: 40.0 mg/kg/injection, schedule: Q01DX011 (sc), vehicle: steriod suspending solution", "result": "15 % of control"}, {"measurement": "T/C", "setting": "dose: 45.0 mg/kg/injection, schedule: Q01DX011 (sc), vehicle: steriod suspending solution", "result": "27 % of control"}, {"measurement": "T/C", "setting": "dose: 50.0 mg/kg/injection, schedule: Q01DX011 (sc), vehicle: steriod suspending solution", "result": "16 % of control"}, {"measurement": "T/C", "setting": "dose: 62.5 mg/kg/injection, schedule: Q01DX011 (sc), vehicle: steriod suspending solution", "result": "21 % of control"}, {"measurement": "T/C", "setting": "dose: 70.0 mg/kg/injection, schedule: Q01DX001 (sc), vehicle: steriod suspending solution", "result": "34 % of control and 41 % of control"}, {"measurement": "T/C", "setting": "dose: 70.0 mg/kg/injection, schedule: Q07DX002 (sc), vehicle: steriod suspending solution", "result": "17 % of control"}, {"measurement": "T/C", "setting": "dose: 80.0 mg/kg/injection, schedule: Q01DX006 (iv), vehicle: steriod suspending solution", "result": "19 % of control"}, {"measurement": "T/C", "setting": "dose: 125.0 mg/kg/injection, schedule: Q01DX011 (sc), vehicle: steriod suspending solution", "result": "2 % of control"}, {"measurement": "T/C", "setting": "dose: 140.0 mg/kg/injection, schedule: Q01DX001 (sc), vehicle: steriod suspending solution", "result": "23 % of control and 43 % of control"}, {"measurement": "T/C", "setting": "dose: 160.0 mg/kg/injection, schedule: Q01DX006 (iv), vehicle: steriod suspending solution", "result": "28 % of control"}, {"measurement": "T/C", "setting": "dose: 280.0 mg/kg/injection, schedule: Q01DX001 (sc), vehicle: steriod suspending solution", "result": "32 % of control and 46 % of control"}, {"measurement": "T/C", "setting": "dose: 280.0 mg/kg/injection, schedule: Q07DX002 (sc), vehicle: steriod suspending solution", "result": "14 % of control"}]}
{"smiles": "C[N+](C)(C)c1ncnc2c1ncn2C1CCCO1", "note": "(configuration not stated)", "values": [{"measurement": "T/C", "setting": "dose: 18.7 mg/kg/injection, schedule: Q01DX011 (ip), vehicle: saline", "result": "100 % of control"}, {"measurement": "T/C", "setting": "dose: 37.5 mg/kg/injection, schedule: Q01DX011 (ip), vehicle: saline", "result": "5 % of control"}, {"measurement": "T/C", "setting": "dose: 100.0 mg/kg/injection, schedule: Q01DX011 (ip), vehicle: saline", "result": "2 % of control"}]}
{"smiles": "CCCCn1cnc2c(SCc3cccc(F)c3)nc(N)nc21", "values": [{"measurement": "T/C", "setting": "dose: 3.1 mg/kg/injection, schedule: Q01DX011 (ip), vehicle: methylcellulose (MC)", "result": "50 % of control"}, {"measurement": "T/C", "setting": "[1]", "result": "61 % of control"}, {"measurement": "T/C", "setting": "[2]", "result": "23 % of control"}, {"measurement": "T/C", "setting": "[3]", "result": "1 % of control and 8 % of control"}]}
